According to publication PMC11947183 (Communications Biology, 2025):

Key:
MjavOBP1 = assay type: binding, Manis javanica; details: for Kd: read-out: K d (competitive binding), pH 7.4
MjavOBP2 = target: MjavOBP2; parameters: species or system Manis javanica; details: read-out: K d (competitive binding); pH 7.4
MjavOBP3 = system: MjavOBP3; parameters: species or system Manis javanica; details: read-out: IC50 (competitive binding); pH 7.4

CC(C)=CCCC(C)=CC=O (mixture of isomers) [citral, Citral]
binding to MjavOBP1 (in words) (MjavOBP1): bound weakly

O=C(O)CCc1ccccc1 [3-phenylpropionic acid, 3-Phenylpropionic acid]
binding to MjavOBP1 (in words) (MjavOBP1): bound weakly

CCCCCCCCCC(C)=O [2-undecanone, 2-Undecanone]
Kd (MjavOBP1): 56.6 ± 4.2 µM
Kd (MjavOBP2): 54.5 ± 10.8 µM

Cc1c[nH]c2ccccc12 [skatole, 3-methylindole]
Kd (MjavOBP2): 40.8 ± 8.93 µM

C=CC(=C)CC/C=C(\C)CCC=C(C)C [β-farnesene]
IC50 (MjavOBP3): > 2.23 µM

CCCCCCCC1CCCC(=O)O1 (stereo not drawn) [δ-dodecalactone, δ-Dodecalactone]
Kd (MjavOBP1): 38.7 ± 2.04 µM

CCCCCC=O [hexanal, Hexanal]
IC50 (MjavOBP3): > 2.23 µM

CCCCCCCCC(=O)CC [3-undecanone, 3-Undecanone]
IC50 (MjavOBP3): > 2.23 µM
